Laboratory results as given in ChEMBL document CHEMBL1157348, “The alkaloid conessine and analogues as potent histamine H3 receptor antagonists” (J Med Chem, 2008).
Calls of active or inactive are those of the source. No cut-off for these calls is given here.

Columns and labels:
Histamine H3 receptor [1] = target: T1, Histamine H3 receptor (Rattus norvegicus, UniProt Q9QYN8); test: Displacement of [3H]NAMH from histamine H3 receptor in rat cortex; details: read-out: Ki
Histamine H3 receptor [2] = target: T2, Histamine H3 receptor (Homo sapiens, UniProt Q9Y5N1); test: Antagonist activity at H3 receptor assessed as inhibition of [35S]gammaGTP binding relative to control
Histamine H3 receptor [3] = target: T1, Histamine H3 receptor; test: Displacement of [3H]NAMH from rat full length histamine H3 receptor expressed in rat C6 cells; assay type: cell-based; details: read-out: Ki
Histamine H3 receptor [4] = target: T2, Histamine H3 receptor; test: Displacement of [3H]NAMH from human full length histamine H3 receptor expressed in rat C6 cells; assay type: cell-based
Histamine H1 receptor = Histamine H1 receptor (Homo sapiens, UniProt P35367); test: Displacement of [3H]mepyramine from human histamine H1 receptor; details: read-out: Ki
[5] = Selectivity ratio for human adrenergic alpha 2C4 receptor over human H3 receptor
Glucocorticoid receptor = target: T3, Glucocorticoid receptor (Homo sapiens, UniProt P04150); test: Binding affinity at glucocorticoid receptor
T3 sequence (P04150 whole entry): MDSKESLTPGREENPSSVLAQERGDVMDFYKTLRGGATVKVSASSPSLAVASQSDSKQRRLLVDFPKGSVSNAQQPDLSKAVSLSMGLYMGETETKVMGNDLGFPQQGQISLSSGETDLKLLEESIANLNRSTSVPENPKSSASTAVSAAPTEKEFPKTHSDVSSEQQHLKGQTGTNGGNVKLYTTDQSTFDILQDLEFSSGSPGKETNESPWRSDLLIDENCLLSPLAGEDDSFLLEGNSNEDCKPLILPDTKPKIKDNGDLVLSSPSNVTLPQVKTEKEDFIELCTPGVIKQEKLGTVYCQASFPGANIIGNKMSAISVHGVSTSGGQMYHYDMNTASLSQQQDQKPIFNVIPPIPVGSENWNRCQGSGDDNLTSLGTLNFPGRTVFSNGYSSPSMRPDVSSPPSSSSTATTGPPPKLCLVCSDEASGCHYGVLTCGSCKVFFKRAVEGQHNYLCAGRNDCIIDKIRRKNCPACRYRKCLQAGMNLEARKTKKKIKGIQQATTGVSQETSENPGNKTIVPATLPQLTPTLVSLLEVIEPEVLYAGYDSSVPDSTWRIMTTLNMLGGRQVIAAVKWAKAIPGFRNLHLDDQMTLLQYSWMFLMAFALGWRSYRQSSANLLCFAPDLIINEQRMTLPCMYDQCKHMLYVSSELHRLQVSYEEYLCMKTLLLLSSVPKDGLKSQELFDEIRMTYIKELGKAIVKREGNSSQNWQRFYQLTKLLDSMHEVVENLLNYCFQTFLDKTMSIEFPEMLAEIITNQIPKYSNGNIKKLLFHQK

Mus musculus = test: Increase in learning and memory performance in mouse at 0.01 mg/kg, ip after 24 hrs by passive avoidance test; assay type: functional, organism-based; design: dose 0.01 mg/kg
[6] = Binding affinity at dopamine receptor
[7] = Half life in rat; assay type: ADME, organism-based; details: in vivo
[8] = Oral bioavailability in rat; assay type: ADME, organism-based; details: in vivo
Histamine H3 receptor [9] = target: T2, Histamine H3 receptor; test: Antagonist activity at human full length histamine H3 receptor expressed in HEK293 cells assessed as inhibition of (R)-alpha-methylhistamine-induced intracellular calcium release by FLIPR; assay type: functional, cell-based
Estrogen receptor = target: T4, Estrogen receptor (Homo sapiens, UniProt P03372); test: Binding affinity at estrogen receptor
T4 sequence (P03372 whole entry): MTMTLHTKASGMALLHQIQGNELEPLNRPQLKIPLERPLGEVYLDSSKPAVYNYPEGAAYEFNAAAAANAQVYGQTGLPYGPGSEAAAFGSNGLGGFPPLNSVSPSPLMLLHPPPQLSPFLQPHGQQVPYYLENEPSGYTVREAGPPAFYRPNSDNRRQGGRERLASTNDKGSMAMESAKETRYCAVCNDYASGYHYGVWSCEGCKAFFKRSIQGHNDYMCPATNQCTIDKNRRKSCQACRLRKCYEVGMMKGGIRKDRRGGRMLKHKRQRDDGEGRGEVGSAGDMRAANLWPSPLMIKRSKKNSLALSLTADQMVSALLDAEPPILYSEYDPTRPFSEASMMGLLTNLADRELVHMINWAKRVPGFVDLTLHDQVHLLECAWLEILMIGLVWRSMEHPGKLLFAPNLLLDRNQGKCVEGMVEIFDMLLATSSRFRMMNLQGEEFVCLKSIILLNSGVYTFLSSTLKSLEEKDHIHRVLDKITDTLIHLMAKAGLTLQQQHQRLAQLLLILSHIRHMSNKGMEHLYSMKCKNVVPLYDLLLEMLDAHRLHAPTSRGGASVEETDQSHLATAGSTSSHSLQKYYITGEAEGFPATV

[10] = Binding affinity at cholinergic receptor
[11] = Inhibition of CYP enzyme; assay type: ADME
[12] = Binding affinity at serotonin receptor
[13] = target: T5, Alpha-2C adrenergic receptor (Homo sapiens, UniProt P18825); test: Displacement of [3H]rauwolscine from human adrenergic alpha 2C4 receptor expressed in mouse LTK- cells; assay type: cell-based
T5 sequence (P18825 whole entry): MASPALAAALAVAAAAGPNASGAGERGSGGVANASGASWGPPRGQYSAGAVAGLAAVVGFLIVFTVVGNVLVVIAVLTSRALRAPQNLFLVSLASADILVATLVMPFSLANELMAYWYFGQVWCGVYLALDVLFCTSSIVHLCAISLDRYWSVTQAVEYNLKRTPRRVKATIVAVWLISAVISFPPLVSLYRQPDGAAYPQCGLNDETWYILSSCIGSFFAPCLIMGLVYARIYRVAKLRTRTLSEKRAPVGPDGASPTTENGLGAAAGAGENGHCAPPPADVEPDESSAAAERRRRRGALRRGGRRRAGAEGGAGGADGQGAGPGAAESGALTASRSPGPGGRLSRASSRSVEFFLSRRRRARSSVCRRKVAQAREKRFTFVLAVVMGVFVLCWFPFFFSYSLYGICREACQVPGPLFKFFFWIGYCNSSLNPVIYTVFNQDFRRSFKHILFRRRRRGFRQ

T2 sequence (Q9Y5N1 whole entry): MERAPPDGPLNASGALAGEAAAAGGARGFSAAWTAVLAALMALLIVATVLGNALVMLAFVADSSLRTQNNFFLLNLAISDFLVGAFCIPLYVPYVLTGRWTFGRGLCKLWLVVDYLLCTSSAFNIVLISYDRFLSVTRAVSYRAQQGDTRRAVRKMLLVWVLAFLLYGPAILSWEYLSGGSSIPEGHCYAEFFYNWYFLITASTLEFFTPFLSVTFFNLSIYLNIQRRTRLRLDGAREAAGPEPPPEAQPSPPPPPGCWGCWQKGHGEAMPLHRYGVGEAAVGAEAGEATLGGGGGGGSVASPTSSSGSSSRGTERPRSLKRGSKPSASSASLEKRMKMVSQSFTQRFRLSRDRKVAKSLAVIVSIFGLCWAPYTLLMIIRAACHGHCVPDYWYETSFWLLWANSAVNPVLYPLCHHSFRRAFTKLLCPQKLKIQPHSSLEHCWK
T1 sequence (Q9QYN8 whole entry): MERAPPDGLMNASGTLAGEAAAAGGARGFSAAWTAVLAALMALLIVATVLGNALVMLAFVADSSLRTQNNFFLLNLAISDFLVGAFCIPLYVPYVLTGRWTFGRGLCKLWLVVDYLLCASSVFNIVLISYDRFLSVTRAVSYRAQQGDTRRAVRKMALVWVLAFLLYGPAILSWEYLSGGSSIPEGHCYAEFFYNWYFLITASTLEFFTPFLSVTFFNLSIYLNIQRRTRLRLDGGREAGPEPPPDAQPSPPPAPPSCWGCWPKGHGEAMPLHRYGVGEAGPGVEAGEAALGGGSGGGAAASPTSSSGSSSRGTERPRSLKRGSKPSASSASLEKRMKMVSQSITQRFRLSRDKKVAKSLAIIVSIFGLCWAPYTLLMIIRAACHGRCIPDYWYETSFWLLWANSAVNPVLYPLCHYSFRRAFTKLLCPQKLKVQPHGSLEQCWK
Sequence of Histamine H1 receptor (P35367 whole entry): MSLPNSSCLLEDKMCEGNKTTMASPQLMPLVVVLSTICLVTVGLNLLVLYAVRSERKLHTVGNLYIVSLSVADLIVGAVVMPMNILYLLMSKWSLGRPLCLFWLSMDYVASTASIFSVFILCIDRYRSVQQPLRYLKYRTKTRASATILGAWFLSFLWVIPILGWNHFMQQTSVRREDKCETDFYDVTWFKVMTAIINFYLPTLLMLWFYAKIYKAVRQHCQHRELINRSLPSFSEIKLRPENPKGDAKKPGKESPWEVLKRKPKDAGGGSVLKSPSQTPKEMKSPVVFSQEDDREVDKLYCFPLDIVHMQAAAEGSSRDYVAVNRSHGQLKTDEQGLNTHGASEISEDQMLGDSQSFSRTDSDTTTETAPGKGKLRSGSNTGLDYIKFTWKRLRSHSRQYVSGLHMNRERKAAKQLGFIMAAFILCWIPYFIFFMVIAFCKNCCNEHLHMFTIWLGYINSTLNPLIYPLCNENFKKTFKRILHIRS

CN[C@@H](C(=O)N(C)[C@H]1CC[C@@]2(C)C(=CC[C@H]3[C@@H]4CC[C@@H]5[C@H](C)N(C)C[C@@]54CC[C@@H]32)C1)C(C)C
Ki (Histamine H3 receptor [1]): 2.57 nM
EC50 (Histamine H3 receptor [2]): 3.3 nM
Ki (Histamine H3 receptor [3]): 2.57 nM
Ki (Histamine H3 receptor [4]): 0.21 nM
Ki (Histamine H1 receptor): > 10000 nM
Selectivity ratio [5]: 370
Ki (Glucocorticoid receptor): > 30000 nM
Activity (Mus musculus): Active
Ki [6]: > 10000 nM
half-life [7]: 77 h
bioavailability [8]: 65%
Kb (Histamine H3 receptor [9]): 4 nM
Ki (Estrogen receptor): > 30000 nM
Ki [10]: > 10000 nM
IC50 [11]: > 10000 nM
Ki [12]: > 10000 nM
Ki [13]: 77.6 nM
